Consider 7 compounds from patent US20020095001A1, “Methods and compositions for topical treatment of damaged tissue using reactive oxygen metabolite production or release inhibitors” (priority 1999, published 2002).

One assay relates to herpes genitalis. The settings on record: 0.07% by weight foam (vaginal) and cream (external), three times a day for five days. The method, then: Using an applicator, the foam is injected into the vaginal space to treat herpetic lesions therein. The cream is applied topically to external lesions. The cream and foam are applied three times a day for a period of five days.
Assay [1] relates to herpes labialis. The settings on record: 0.07% by weight lipstick, three times a day for five days. The text has this:
The treatment consists of topical application three times a day for a period of five days.

Assay [2] has as its system photodermatitis (second degree sunburn). The settings on record: aloe vera based gel such as SOOTH-A-CAINE containing 0.006% by weight. The text has this:
The ROM production and release inhibitory compound serotonin is used in a gel to treat a subject presenting photodermatitis (second degree sunburn) and attendant blister formation. The subject has blister formation as well as deep reddening of the epidermis on the back.

The subject of assay [3] is pharyngotosillitis, a herpetic infection of the pharyngeal region. Description: Example 5: pharyngotonsillitis treated with a mouthwash. The format is in vivo, human. The note with it: mouthwash 0.05% by weight, five applications per day for seven days. The method, then: A subject suffering from pharyngotosillitis, a herpetic infection of the pharyngeal region is treated with a mouthwash containing the ROM inhibitory compound NADPH oxidase inhibitor […] in a concentration of 0.05% by weight of formulation. The treatment consists of five mouthwash applications per day for a period of seven days. The administration of […] was effective in treating the pharyngotosillitis of the subject.

The next assay has as its system thermal burn injuries. As to the kind of experiment: Example 15: thermal burn injuries treated with a water-based gel. Format: in vivo, human. The note with it: water-based gel 0.007% by weight; every 10 minutes first hour, every 30 minutes next three hours, then as needed.
The next assay addresses T1, NADPH oxidase (Homo sapiens, UniProt P04839).
T1 construct: host or cells: phagocytes / neutrophils (background description)
The settings on record: membrane bound oxidase of phagocytes, substrate preference; generally accepted; cited from earlier work.

In the next assay the test system is eczema. The note with it: soap approx. 0.1% by weight once daily and lotion approx. 0.0055% by weight up to five times a day. As to the method:
A subject presenting eczema is treated with a lotion and soap containing the ROM production and release inhibitory compound histamine dihydrochloride. The soap contains histamine in a concentration of approximately 0.1% by weight while the lotion contains histamine in a concentration of approximately 0.0055% by weight. The subject bathes with the soap once daily. The affected area is lathered well with the soap, rinsed, and the procedure is repeated. Following the bath, the lotion is applied up to five times throughout the day to the affected area.

In another assay the test system is periodontal disease. The settings on record: mouthwash and toothpaste, each 0.008% by weight, three times daily. The method, then: A subject presenting periodontal disease is treated with a mouthwash and toothpaste, each containing 0.008% by weight of histamine dihydrochloride. The subject brushes their teeth three times daily with the toothpaste for ten minutes. Following this cleansing, the subject washes their mouth with the mouthwash, rinses with water, and repeats. The treatment continues until the health of the periodontal tissue improves.

In assay [4] the test system is chemical peel treated skin. The note with it: solution 0.008% by weight, soaking five times daily after chemical peel. An excerpt:
The solution is applied by soaking the treated five times daily to the treated area.

Assay [5] deals with laser facial resurfacing treated skin. The note with it: bandage with sterile solution 0.008% by weight five times daily, plus sunscreen 0.008% by weight. An excerpt:
The bandage containing the sterile solution of histamine dihydrochloride is applied five times daily to the treated area. A sunscreen containing 0.008% by weight of histamine dihydrochloride is also applied before the subject is to be exposed to sunlight.

A further assay concerns incision of the skin. The settings on record: formulation 0.0045% by weight with vitamin A 2000 IU, vitamin E 5000 IU and a topical antibiotic, twice a day. The method, then:
The compositions of the present invention are administered topically to a subject presenting an incision of the skin. A formulation containing histamine dihydrochloride in a concentration of 0.0045% by weight of the formulation, vitamin A at 2000 IU, vitamin E at 5000 IU, and a topical antibiotic is applied to the wound following proper wound cleansing. Subsequent administration of the formulation occurs twice a day and with each change of wound dressing.

Assay [6] has as its system herpes labialis. The note with it: cream with 0.08% by weight, topical four to five times a day; compared to control cream group.
From the text: Treatment of the subjects consists of the topical application of the medication four to five times a day at the lesion site.
The subject of assay [7] is herpes zoster or shingles lesions. The settings on record: ointment approx. 0.004% by weight four times a day plus subcutaneous histamine 10 μg/kg once per week. As to the method:
A subject presenting herpes zoster or shingles lesions is treated with the compounds of the present invention in the form of an ointment. […] The ointment is administered topically to shingles lesions four times a day until the lesions completely heal. A subcutaneous injection of histamine at a concentration of 10 μg/kg of the subject is also administered. The injection is given once per week.

Assay [8] relates to herpes labialis. The note with it: cream 0.08% by weight five times a day together with ZOVIRAX; compared to ZOVIRAX alone.
Method: The ability of the ROM production and release inhibition compounds of the present invention to increase the effectiveness of 9-(2-Hydroxyethoxymethyl)guanine, ZOVIRAX, (GlaxoWellcome) is evaluated in two groups of 10 subjects each. No subjects are suffering from active lesions at the initiation of the study. Group I subjects receive ZOVIRAX according to the dosage given by the manufacturer. […] Application of the cream continues during vesicle formation and until the vesicles have completely healed. Subjects in both groups are instructed to topically apply the product five times a day at the lesion site.
Subjects participating in the study are instructed to monitor the size and duration of the lesions during the herpetic episode.
In assay [9] the test system is varicella-zoster virus (chicken pox) infection. The settings on record: child; paste 0.02% by weight five times per day and soap 0.1% by weight during bathing.
Method: A child presenting the symptoms of chicken pox is treated with the compounds of the present invention. In this example, two products are used to treat the subject. […] The paste is applied five times per day until the vesicles have completely healed.
Another assay relates to chemical burn injuries. The note with it: water-based gel 0.007% by weight; every 10 minutes first hour, every 30 minutes next three hours, then as needed. As to the method: The compositions of the present invention are administered topically to a subject presenting chemical burn injuries. A water-based gel preparation containing of 0.007% by weight of the formulation of histamine dihydrochloride was administered to the subject's burn injuries. The treatment consisted of topical application of the gel to the burn site every 10 minutes for the first hour, then every 30 minutes for the next three hours. Topical applications thereafter are applied as needed by the subject in response to pain.

For another assay, the system named is psoriasis of the scalp. As to the method:
A subject suffering from psoriasis of the scalp is treated with a shampoo containing approximately 0.008% by weight of histamine dihydrochloride. The subject undergoes UVB treatment in accordance with a protocol well known to those of ordinary skill in the art. In addition, the subject washes their hair once per day with the shampoo containing the ROM production and release inhibitory compound histamine.

For assay [10], the system named is keratoconjunctivitis or a corneal herpes infection. The settings on record: ophthalmic solution 0.09% by weight with ZOVIRAX every three hours, plus solution without ZOVIRAX hourly. The method, then: A subject presenting keratoconjunctivitis or a corneal herpes infection is treated with the compositions of the present invention using an ophthalmic solution of histamine dihydrochloride at 0.09% by weight of formulation. Commercially available ophthalmic solutions are well known in the art. Additionally, the ophthalmic solution contains ZOVIRAX in an effective concentration. Application of the solution to the eye occurs every three hours. A solution containing only the ROM production and release inhibiting compound is given hourly to ease the discomfort of the subject.

Method for thermal burn injuries: The compositions of the present invention are administered topically to a subject presenting thermal burn injuries. A water-based gel preparation containing of 0.007% by weight of the formulation of serotonin was administered to the subject's burn injuries. The treatment consisted of topical application of the gel to the burn site every 10 minutes for the first hour, then every 30 minutes for the next three hours. Topical applications thereafter are applied as needed by the subject in response to pain.

For histamine diphosphate, the “healing time of the ruptured herpetic vesicles” value with herpes genitalis and in the assay on herpes labialis [1] was “reduced the healing time” in each case.

As for `NCCc1c[nH]cn1` [histamine], in assay [2], the “blistering and amount of skin sloughed off as a result of the irradiation” value is “decrease in blistering and the amount of skin sloughed off”; the “discomfort in the subject” value is listed as “reduction of discomfort”.

On to `c1ccc2c(c1)[I+]c1ccccc1-2` [diphenlyeneiodonium], for which the “effectiveness in treating the pharyngotosillitis” value in assay [3] is “effective”.

With `NCCc1c[nH]c2ccc(O)cc12` [serotonin], in the assay on thermal burn injuries, the “discomfort of the subject” value was “reduces the discomfort” and the “healing of the burn injuries” value is “promotes healing”.

For the compound `NC(=O)C1=CN([C@@H]2O[C@H](COP(=O)(O)OP(=O)(O)OC[C@H]3O[C@@H](n4cnc5c(N)ncnc54)[C@H](O)[C@@H]3O)[C@@H](O)[C@H]2O)C=CC1` [NADH], on NADPH oxidase, the Km was 450 µM.

Turning to `Cl.Cl.NCCc1c[nH]cn1` [histamine dihydrochloride], in the assay on eczema, the “general condition of the skin in the affected area” value is recorded as “increase in the general condition of the skin” and the symptoms of eczema entry was “decrease in the symptoms”. For the same compound, the rate of healing result with periodontal disease is listed as “rate of healing is increased”. Also, the rate of healing entry in assay [4] was “rate of healing is increased”. Moreover, the rate of healing entry in assay [5] is “rate of healing is increased”. Besides, in the assay on incision of the skin, the “healing of the incision” value is “promotes healing of the incision” and the scar formation entry is given as “reduces scar formation”. In the assay on herpes labialis [6], the “healing time of herpetic lesions” value is “decrease in healing time”. Moreover, the “time required for the healing of the herpetic lesions” value in assay [7] is “reduces the time required for the healing”. Also, in the assay on herpes labialis [8], the “size of the herpetic lesions forming during the outbreak period” value is “decrease in the size of the herpetic lesions”. Also, in assay [9], the healing of vesicles entry is listed as “causes the vesicles to heal rapidly” and the “level of discomfort experienced by the subject” value is on record as “decreases the level of discomfort”. Also, in the assay with chemical burn injuries, the “discomfort of the subject” value is reported as “reduces the discomfort” and the “healing of the burn injuries” value is reported as “promotes healing”. The “rate of reduction in symptoms” value with psoriasis of the scalp (shampoo approx. 0.008% by weight once per day with UVB, compared to UVB treatment alone) is listed as “reduction in symptoms at a greater rate”. For the same compound, the “irritation of the affected area” value in the assay on psoriasis of the scalp (shampoo approx. 0.008% by weight once per day, with UVB treatment) is reported as “reduces the irritation of the affected area”. For the same compound, in assay [10], the “damage caused by the viral outbreak” value is listed as “reduces”, the “discomfort of the patient” value is “reduces the discomfort of the patient” and the “time period of viral activity” value is reported as “reduces the time period of viral activity”.

For `NC(=O)C1=CN([C@@H]2O[C@H](COP(=O)(O)OP(=O)(O)OC[C@H]3O[C@@H](n4cnc5c(N)ncnc54)[C@H](OP(=O)(O)O)[C@@H]3O)[C@@H](O)[C@H]2O)C=CC1` [NADPH], on NADPH oxidase, the Km was 45 µM.
